Assay results: patent publication US7300941B2, “Non-imidazole compounds” (Schering Corporation, priority 2000, dated 2007)
pKi: −log10 of the molar value. Several values for one entry are separate records, joined by “and”; a condition that tells them apart may be missing. Identical values can stand only once.

molecular target: T1, H3 receptors (Cavia porcellus, UniProt Q9JI35); assay: H3-Receptor Binding Assay; settings: guinea pig brain membranes; 3 nM [3H]R-α-methyl histamine or 3 nM [3H]Nα-methyl histamine; 30° C., 30 min
T1 construct: The brain tissue was homogenized with a solution of 50 mM Tris, pH 7.5; from tissue; host or cells: guinea pig brain membranes
Method: H3-Receptor Binding Assay
The source of the H3 receptors in this experiment was guinea pig brain. The animals weighed 400-600 g. The brain tissue was homogenized with a solution of 50 mM Tris, pH 7.5. The final concentration of tissue in the homogenization buffer was 10% w/v. The homogenates were centrifuged at 1,000×g for 10 min. in order to remove clumps of tissue and debris. The resulting supernatants were then centrifuged at 50,000×g for 20 min. in order to sediment the membranes, which were next washed three times in homogenization buffer (50,000×g for 20 min. each). The membranes were frozen and stored at −70° C. until needed.
All compounds to be tested were dissolved in DMSO and then diluted into the binding buffer (50 mM Tris, pH 7.5) such that the final concentration was 2 μg/ml with 0.1% DMSO. Membranes were then added (400 μg of protein) to the reaction tubes. The reaction was started by the addition of 3 nM [^3H]R-α-methyl histamine (8.8 Ci/mmol) or 3 nM [^3H]N^α-methyl histamine (80 Ci/mmol) and continued under incubation at 30° C. for 30 min. Bound ligand was separated from unbound ligand by filtration, and the amount of radioactive ligand bound to the membranes was quantitated by liquid scintillation spectrometry. All incubations were performed in duplicate and the standard error was always less than 10%. Compounds that inhibited more than 70% of the specific binding of radioactive ligand to the receptor were serially diluted to determine a Ki (nM).

T1 sequence (Q9JI35 whole entry): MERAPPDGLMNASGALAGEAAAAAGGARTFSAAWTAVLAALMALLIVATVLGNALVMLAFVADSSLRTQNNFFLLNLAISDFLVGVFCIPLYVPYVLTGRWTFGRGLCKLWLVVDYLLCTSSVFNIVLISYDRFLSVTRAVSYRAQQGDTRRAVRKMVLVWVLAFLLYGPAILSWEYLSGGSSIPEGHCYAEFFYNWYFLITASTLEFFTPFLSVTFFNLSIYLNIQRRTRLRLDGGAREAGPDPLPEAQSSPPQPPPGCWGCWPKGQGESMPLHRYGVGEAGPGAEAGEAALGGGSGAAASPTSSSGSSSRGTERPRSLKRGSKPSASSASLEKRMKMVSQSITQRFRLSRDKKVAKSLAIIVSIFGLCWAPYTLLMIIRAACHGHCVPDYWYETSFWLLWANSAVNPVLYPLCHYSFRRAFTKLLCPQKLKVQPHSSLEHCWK

SMILES | pKi
CCON=C(c1ccc(Cl)cc1)C1CCN(C(=O)C2CCN(Cc3ccnc(N)c3)CC2)CC1 [Compound 212] | 7.48 to 9.60
CO/N=C(\c1ccccn1)C1CCN(C(=O)C2CCN([C@@H](C)c3ccnc(N)c3)CC2)CC1 [Compound 56] | 7.48 to 9.60 and 7.80 to 9.60
CON=C(c1ccc(Cl)cc1Cl)C1CCN(C(=O)C2CCN(C(C)c3ccnc(N)c3)CC2)CC1 (stereo not drawn) [Compound 233] | 7.48 to 9.60
CO/N=C(/c1ccc(C(F)(F)F)cc1)C1CCN(C(=O)C2CCN(Cc3ccnc(N)c3)CC2)CC1 [Compound 226] | 7.48 to 9.60
CON=C(c1ccc(Cl)cc1)C1CCN(C(=O)C2(O)CCN(Cc3ccnc(N)c3)CC2)CC1 [Compound 59] | 7.48 to 9.60
CON=C(c1ccc(Cl)cc1)C1CCN(C(=O)C2CCN(C(C)c3ccnc(N)c3)CC2)CC1 (stereo not drawn) [Compound 227] | 7.48 to 9.60
CO/N=C(\c1ccccn1)C1CCN(C(=O)C2CCN([C@H](C)c3ccnc(N)c3)CC2)CC1 [Compound 57A] | 7.48 to 9.60
CO/N=C(/c1ccc(Cl)cc1)C1CCN(C(=O)C2CCN(Cc3ccncc3)CC2)CC1 [Compound 273] | 7.80 to 9.60
CCON=C(c1ccc(F)cc1F)C1CCN(C(=O)C2CCN(Cc3ccnc(N)c3)CC2)CC1 [Compound 229] | 7.48 to 9.60
CON=C(C1CCCCC1)C1CCN(C(=O)C2CCN(Cc3ccnc(N)c3)CC2)CC1 [Compound 309] | 7.48 to 9.60 and 7.80 to 9.60
CON=C(c1ccc(Cl)cc1)C1CCN(C(=O)C2CCN(Cc3ccnc(N)c3)CC2)CC1 [Compound 280] | 7.80 to 9.60
CON=C(c1ccc(Cl)cc1)C1CCN(C(=O)N2CCN(Cc3ccnc(N)c3)CC2)CC1 [Compound 215] | 7.48 to 9.60
CO/N=C(/c1ccccn1)C1CCN(C(=O)C2CCN([C@H](C)c3ccnc(N)c3)CC2)CC1 [Compound 55] | 7.48 to 9.60 and 7.80 to 9.60 and 8.01 to 8.98
CO/N=C(\c1ccc(Cl)cc1)C1CCN(C(=O)C2CCN(Cc3ccnc(N)c3)CC2)CC1 [Compound 224] | 7.48 to 9.60
CON=C(c1cccc(S(=O)(=O)N(C)C)c1)C1CCN(C(=O)C2CCN(Cc3ccnc(N)c3)CC2)CC1 [Compound 251] | 7.48 to 9.60
Nc1cc(CN2CCC(C(=O)N3CCC(c4noc5cc(F)ccc45)CC3)CC2)ccn1 [Compound 23] | 7.48 to 9.60
O=C(C1CCN(Cc2ccncc2)CC1)N1CCC(/C(=N\O)c2ccc(F)cc2)CC1 [Compound 275] | 7.48 to 9.60
CON=C(c1cc(Cl)cc(Cl)c1)C1CCN(C(=O)C2CCN(Cc3ccnc(N)c3)CC2)CC1 [Compound 218] | 7.48 to 9.60

Results, then the compound that gave them:

pKi | SMILES
7.48 to 9.60 and 7.80 to 9.60 | CCO/N=C(/c1ccccn1)C1CCN(C(=O)C2CCN(Cc3ccnc(N)c3)CC2)CC1 [Compound 246A]
7.48 to 9.60 and 7.80 to 9.60 | Nc1cc(CN2CCC(C(=O)N3CCC(C(=O)c4ccccn4)CC3)CC2)ccn1 [Compound 30]
7.48 to 9.60 and 7.80 to 9.60 | CON=C(c1ccccn1)C1CCN(C(=O)C2CCN(Cc3ccnc(N)c3)CC2)CC1 [Compound 31]
7.48 to 9.60 and 7.80 to 9.60 | CON=C(c1ccccn1)C1CCN(C(=O)C2CCN(Cc3ccncc3N)CC2)CC1 [Compound 296]
7.48 to 9.60 | CON=C(c1csc(C)n1)C1CCN(C(=O)C2CCN(Cc3ccnc(N)c3)CC2)CC1 [Compound 253]
7.48 to 9.60 | CON=C(c1ccccc1F)C1CCN(C(=O)C2CCN(Cc3ccnc(N)c3)CC2)CC1 [Compound 219]
7.48 to 9.60 and 7.80 to 9.60 and 8.01 to 8.98 | CO/N=C(/c1ccccn1)C1CCN(C(=O)C2CCN(Cc3cnc(N)nc3)CC2)CC1 [Compound 287]
7.48 to 9.60 | CON=C(c1ccc[n+]([O-])c1)C1CCN(C(=O)C2CCN(Cc3ccnc(N)c3)CC2)CC1 [Compound 92]
7.48 to 9.60 | CON=C(c1ncccn1)C1CCN(C(=O)C2CCN(Cc3ccnc(N)c3)CC2)CC1 [Compound 248]
7.48 to 9.60 and 7.80 to 9.60 | Nc1cc(CN2CCC(C(=O)N3CCC(C(=NO)c4ccccn4)CC3)CC2)ccn1 [Compound 237]
8.01 to 8.98 | Nc1cc(CN2CCC(C(=O)N3CCC(/C(=N\OCC(F)(F)F)c4ncccc4F)CC3)CC2)ccn1 [Compound 320]
7.48 to 9.60 and 7.80 to 9.60 | Nc1cc(CN2CCC(C(=O)N3CCC(C(=O)c4ccc5ccccc5n4)CC3)CC2)ccn1 [Compound 312]
7.48 to 9.60 and 7.80 to 9.60 and 8.01 to 8.98 | CO/N=C(/c1ccccn1)C1CCN(C(=O)C2CCN([C@@H](C)c3ccnc(N)c3)CC2)CC1 [Compound 54]
7.48 to 9.60 | CON=C(c1ccsc1)C1CCN(C(=O)C2CCN(Cc3ccnc(N)c3)CC2)CC1 [Compound 235]
7.48 to 9.60 and 7.80 to 9.60 and 9.08 | CO/N=C(/c1ccccn1)C1CCN(C(=O)C2CCN(Cc3ccnc(N)c3)CC2)CC1 [Compound 32]
7.48 to 9.60 and 7.80 to 9.60 | CO/N=C(/c1ccc(Cl)cc1)C1CCN(C(=O)C2CCN(Cc3ccnc(N)c3)CC2)CC1 [Compound 225]
7.48 to 9.60 and 7.80 to 9.60 | CO/N=C(\c1ccccn1)C1CCN(C(=O)C2CCN(Cc3ccnc(N)c3)CC2)CC1 [Compound 33]
7.48 to 9.60 | CCON=C(c1ccccn1)C1CCN(C(=O)C2CCN(Cc3ccnc(N)c3)CC2)CC1 [Compound 246]
7.48 to 9.60 and 7.80 to 9.60 | CO/N=C(/c1ccccn1)C1CN(C(=O)C2CCN(Cc3ccnc(N)c3)CC2)C1 [Compound 301]
7.48 to 9.60 | CON=C(c1ccccc1)C1CCN(C(=O)C2CCN(Cc3ccnc(N)c3)CC2)CC1 [Compound 238]
7.48 to 9.60 | CON=C(c1ccccn1)C1CCN(C(=O)C2CCN(C(C)c3ccnc(N)c3)CC2)CC1 (stereo not drawn) [Compound 53]
7.48 to 9.60 | Nc1cc(CN2CCC(C(=O)N3CCC(c4noc5ncccc45)CC3)CC2)ccn1 [Compound 247]
7.48 to 9.60 | CON=C(c1ccccc1Cl)C1CCN(C(=O)C2CCN(Cc3ccnc(N)c3)CC2)CC1 [Compound 220]
7.48 to 9.60 and 7.80 to 9.60 and 8.01 to 8.98 | CO/N=C(/c1csc(C)n1)C1CCN(C(=O)C2CCN(Cc3ccnc(N)c3)CC2)CC1 [Compound 253A]
